Results as given in patent US11110105B2, “Compounds, composition and uses thereof for treating cancer” (INSTITUT GUSTAVE ROUSSY, priority 2017, dated 2021).

How the values were obtained:
[1] = tested on: mouse sarcoma cell line MCA205; experiment: B3Z SL8-specific T-cell activation assay, MCA205; assay type: cell-based; conditions: MCA205, Globin-intron-SL8
Method: B3Z SL8-specific T-cell activation after co-culture with (A) human melanoma A375, human lung carcinoma A549 or normal human lung fibroblast MRC5 cell lines, all transiently expressing the intron-derived SL8 peptide and the H2-K^b molecules and treated upstream with 2,5 μM or 6,25 μM isoginkgetin for 18 hours; or with (B) mouse sarcoma MCA205 or mouse melanoma B16F10 cell lines both transiently expressing the intron-derived SL8 peptide and treated upstream with 6,25 μM, 15 μM or 25 μM isoginkgetin for 18 hours. […]
Data are given as mean ±SEM. *P<0.05, **P<0.01, ***P<0.001 (unpaired student t test). […] Tumor size was assessed every 3 to 4 days until reaching the established ethical endpoints. […]
MCA205 and B16F10 mouse cell lines are transfected with the plasmid YFP-Globin-SL8-intron or with the PCDNA3 empty plasmid (negative control) with the transfection reagent jetPRIME (Ozyme) or GeneJuice (Millipore) respectively according to each manufacturer protocol. […] Finally, the β-galactosidase activity is measured using the FLUOstar OPTIMA (BMG LABTECH Gmbh, Offenburg, Germany). Results are expressed as mean ±SEM. *P<0.05, **P<0.01, ***P<0.001 (unpaired student t test).

[2] = tested on: MCA205 mouse sarcoma cell line; experiment: MTT assay on MCA205 cell line; assay type: cell-based; conditions: MCA205 WT cells, 15 μM or 35 μM
Method: (§1) RNA was extracted and qRT-PCR was performed with primers amplifying the unspliced (intron) and the spliced (exon) globin-SL8-intron RNA. Data are given as mean ±SEM of the ratio of 2^−ΔΔCt intron and 2^−ΔΔCt exon of at least three independent experiments. […] Data are express as mean ±SEM of the percentage of viable cells compared to the control condition of at least three independent experiments. *P<0.05, **P<0.01, ***P<0.001 (unpaired student t test).
(§2) MCA205 mouse sarcoma cell line is cultured at 37° C. under 5% CO2 in RPMI 1640 medium (Life Technologies) in the presence of 1% glutamine, 1% sodium pyruvate, 1% non-essential amino-acids, 1% penicillin/streptomycin and 10% FBS (Life Technologies) under standard conditions. B16F10 mouse melanoma cell line, MRC5 human fibroblast cell line and A375 human melanoma cell line are cultured at 37° C. under 5% CO2 in DMEM medium (Life Technologies) containing 1% glutamine, 1% penicillin/streptomycin and 10% FCS under standard conditions. A549 human lung carcinoma cell line is cultured at 37° C. under 5% CO2 in DMEM/F12+Glutamax I in the presence of 1% Hepes, 1% sodium pyruvate and 10% FBS under standard conditions. Stable MCA205-Globin-SL8-intron cell line are cultured under the same condition as MCA205 cell line with additional 2 mg/ml G418 (geneticin from Life Technologies) for selection. Stable B16F10-Globin-SL8-intron cell line are cultured under the same condition as B16F10 cell line with additional 2 mg/ml G418 (geneticin from Life Technologies) for selection. The SL8/Kb-specific (B3Z) T-cell reporter hybridoma are cultured at 37° C. under 5% CO2 in RPMI 1640 medium (Life Technologies) in the presence of 1% glutamine, 0.1% β-galactosidase, 1% penicillin/streptomycin and 10% FCS under standard conditions.
(§3) MTT assay on MCA205 and B16F10 cell lines treated with 6.25 μM, 15 μM or 25 μM of isoginkgetin. Dare are given as the mean of the percentage of cell viability ±SEM from at least three independent experiments.

[3] = MTT assay on MCA205 cell line; assay type: cell-based, mouse; conditions: mouse, MCA205 sarcoma cells, MTT, read-out: % cell viability (±SEM)
Method: as §1, §2, §3

Structure (SMILES) | intron-SL8-derived antigen presentation (B3Z activation) ([1]; 15 μM or 35 μM) | PTPs-dependent (intron-derived SL8) antigen presentation (B3Z activation) ([1]; 15 μM, 25 μM or 35 μM) | toxicity (MTT, percentage of viable cells compared to control) [2] | viability at 6.25 µM ([3]; MCA205, 6.25 μM) [%] | viability at 15 µM ([3]; MCA205, 15 μM) [%] | viability at 25 µM ([3]; MCA205, 25 μM) [%]
COc1ccc(-c2cc(=O)c3c(OC)cc(OP(=O)([O-])[O-])c(-c4cc(-c5cc(=O)c6c(OC)cc(OP(=O)([O-])[O-])cc6o5)ccc4OC)c3o2)cc1.[Na+].[Na+].[Na+].[Na+] [IM2P2] | decreases its presentation | does not increase the presentation | no toxicity | – | – | –
COc1ccc(-c2cc(=O)c3c(O)cc(O)c(-c4cc(-c5cc(=O)c6c(O)cc(O)cc6o5)ccc4OC)c3o2)cc1 [Isoginkgetin, isoginkgetin] | – | – | – | 84.8 | 56.3 | 51.7
